Consider twelve compounds from patent EP1806346B1, “Substituted piperazine compounds and their use as fatty acid oxidation inhibitors” (CV THERAPEUTICS, INC., priority 2002, dated 2004).

The assay deals with Palmitoyl CoA oxidation. Briefly: Mitochondrial assay: palmitoyl CoA oxidation. It counts as biochemical. Conditions: Rat heart mitochondria, 16 µM 1-14C palmitoyl CoA, 15 min at 30°C, 14C bicarbonate counted; read-out: PalmCoA IC50. As to the method: Rat heart mitochondria were isolated by the method ofNedergard and Cannon (Methods in Enzymol. 55, 3, 1979).
Palmitoyl CoA oxidation - The Palmityl CoA oxidation was carried out in a total volume of 100 µL containing the following agents: 110 mM KCl, 33 mM Tris buffer at pH 8, 2 mM KPi, 2 mM MgCl2, 0.1 mM EDTA, 14.7 µM defatted BSA, 0.5 mM malic acid, 13 mM carnitine, 1 mM ADP, 52 µg of mitochondrial protein, and 16 µM 1-14C palmitoyl CoA (Sp. Activity 60 mCi/mmole; 20 µCi/mL, using 5 µL per assay). The compounds of this invention were added in a DMSO solution at the following concentrations: 100 µM, 30 µM, and 3 µM. In each assay, a DMSO control was used. After 15 min at 30°C, the enzymatic reaction was centrifuged (20,000 g for 1 min), and 70 µL of the supernatant was added to an activated reverse phase silicic acid column (approximately 0.5 mL of silicic acid). The column was eluted with 2 mL of water, and 0.5 mL of the eluent was used for scintillation counting to determine the amount of ^14C trapped as ^14C bicarbonate ion.
On to `Cc1nc2cc(OC[C@H](O)CN3CCN(CC(=O)Nc4cccc5c4CCC5)CC3)ccc2s1`, for which the 50% inhibitory concentration (IC50) is 15000 nM. To `Cc1nc2cc(OC[C@H](O)CN3CCN(CC(=O)Nc4ccc(Oc5ccccc5)cc4)CC3)ccc2s1` belongs 330 nM.

With `O=C(CN1CCN(C[C@@H](O)COc2ccc3oc(-c4ccccc4)nc3c2)CC1)Nc1cccc(Oc2ccccc2)c1`, the IC50 is 8500 nM. With `Cc1nc2cc(OC[C@H](O)CN3CCN(CC(=O)Nc4cccc(-c5ccccc5)c4)CC3)ccc2s1` the figure was 180 nM. With `CCn1c2ccccc2c2cc(NC(=O)CN3CCN(C[C@@H](O)COc4ccc5sc(C)nc5c4)CC3)ccc21` the figure was 850 nM; with `O=C(CN1CCN(C[C@@H](O)COc2ccc3oc(-c4ccccc4)nc3c2)CC1)Nc1ccc2ncccc2c1`, 6200 nM; with `Cc1nc2cc(OC[C@H](O)CN3CCN(CC(=O)Nc4cccc5cccnc45)CC3)ccc2s1`, 5200 nM. With `Cc1nc2cc(OC[C@H](O)CN3CCN(CC(=O)Nc4nc(-c5ccc(Cl)cc5)cs4)CC3)ccc2s1` the figure was 7000 nM; with `Cc1nc2cc(OC[C@H](O)CN3CCN(CC(=O)Nc4nc(-c5ccc(Cl)cc5)cs4)C[C@@H]3C)ccc2s1`, 400 nM; with `Cc1nc2cc(OC[C@H](O)CN3CCN(CC(=O)N[C@H]4CCCc5ccccc54)CC3)ccc2s1`, 80 nM.

Turning to `Cc1nc2cc(OC[C@H](O)CN3CCN(CC(=O)N[C@@H](C)c4ccc5ccccc5c4)CC3)ccc2s1`, the IC50 amounted to 850 nM.

As to `Cc1nc2cc(OC[C@H](O)CN3CCN(CC(=O)N[C@@H](C)c4ccccc4)CC3)ccc2s1`, the IC50 amounted to 4400 nM.
